# Results taken from ChEMBL document CHEMBL4425154, “New P2X3 receptor antagonists. Part 2: Identification and SAR of quinazolinones” (Bioorg Med Chem Lett, 2016).
# Details: human, microsomes, 2.5 µM
row,SMILES,CLH
1,NS(=O)(=O)c1ccccc1-c1ccc2ncnc(NCc3ccc(Cl)nc3)c2c1,0.024 mL/h/kg
2,COc1ccc(OC)c(CCN2CCc3ccc(-c4ccccc4S(N)(=O)=O)cc3C2)c1,1.38 mL/h/kg
3,COc1cc(CCn2cnc3ccc(-c4noc(C)n4)cc3c2=O)cc(OC)c1,1.32 mL/h/kg
4,COc1cc(CCn2cnc3ccc(-c4ccccc4S(=O)(=O)N(C)C)cc3c2=O)cc(OC)c1,17.6 mL/h/kg
5,COc1ccc(OC)c(C(C)n2cnc3ccc(-c4ccccc4S(N)(=O)=O)cc3c2=O)c1 (stereo unspecified),2.88 mL/h/kg
6,CNc1ccc(-c2ccccc2S(N)(=O)=O)cc1C(=O)NCCc1cc(OC)ccc1OC,11.5 mL/h/kg
